Results reported in US20220213174A1, “IVIG TREATMENTS FOR SUDDEN SONSORINEURAL HEARING LOSS” (InnoMed Technologies, Inc., priority 2021, published 2022).

How the values were obtained:
[1] = system: Hearing Loss, including Sudden Sensorineural Healing Loss; conditions: prednisolone 60 mg per day for 5 days then reduced, or 50 mg per day for 10 days; cited from earlier work
[2] = system: Sudden Sensorineural Healing Loss; assay: Example 1: treatment of a patient suffering from hearing loss; format: in vivo, human; conditions: person; 60 mg/day prednisone therapy alone; two weeks
Method: The patient, a person was diagnosed by their doctor after claiming they are suffering from unexplained hearing loss. The patient's doctor diagnosed the patient as suffering from Sudden Sensorineural Healing Loss. […] Two weeks after administration, the patient is co-administered a single dose of IVIG at 2 g/kg and 60 mg prednisone and Sudden Sensorineural Healing Loss related symptoms […].

[3] = system: Sudden Sensorineural Hearing Loss; assay: Example 2: treatment of a patient suffering from hearing loss; format: in vivo, human; conditions: person; 60 mg/day prednisone therapy alone for a month
Method: The patient, a person is diagnosed by their doctor as suffering from Sudden Sensorineural Hearing Loss. […] The patient is then administered IVIG at 2 g/kg and 60 mg prednisone. Within three weeks, the Sudden Sensorineural Hearing Loss is resolved by about 80%. The patient is then administered a second dose of IVIG at 2 g/kg and 60 mg. prednisone. Within two weeks, the patient is resolved by about 95%. A week later, the patient's Sudden Sensorineural Hearing Loss symptoms have disappeared and the patient presents as normal.

Compound | outcome and time to complete recovery in patients with Hearing Loss [1] | reduction in the symptoms they suffer [2] | resolution of Sudden Sensorineural Hearing Loss [3]
C[C@]12C=CC(=O)C=C1CC[C@@H]1[C@@H]2[C@@H](O)C[C@@]2(C)[C@H]1CC[C@]2(O)C(=O)CO [prednisolone] | improves outcome |  | 
C[C@]12C=CC(=O)C=C1CC[C@@H]1[C@@H]2C(=O)C[C@@]2(C)[C@H]1CC[C@]2(O)C(=O)CO [prednisone] |  | no reduction | did not resolve
methylprednisone | improves outcome |  | 
